From paper PMC12436592 (Nature Communications, 2025)
“And” between values parts separate entries of the source, which are not always exact repeats. Identical values can stand only once. “Also recorded” adds a separate entry of the source. Each block holds one compound with its values, some of them ahead of it.

Tests used:
hP2X7R = target: T1, hP2X7R (Homo sapiens, UniProt Q99572); assay: Ethidium bromide accumulation in hP2X7R-expressing HEK293 cells; assay type: cell-based; parameters: expressed in transfected cells; conditions: for ΔΔGexp: relative to UB-ALT-P30, from experimental pIC50 values, T = 298 K; for MAX100 (% of maximum accumulation, replicates 1-3): single replicates
T1 sequence (Q99572 1-595): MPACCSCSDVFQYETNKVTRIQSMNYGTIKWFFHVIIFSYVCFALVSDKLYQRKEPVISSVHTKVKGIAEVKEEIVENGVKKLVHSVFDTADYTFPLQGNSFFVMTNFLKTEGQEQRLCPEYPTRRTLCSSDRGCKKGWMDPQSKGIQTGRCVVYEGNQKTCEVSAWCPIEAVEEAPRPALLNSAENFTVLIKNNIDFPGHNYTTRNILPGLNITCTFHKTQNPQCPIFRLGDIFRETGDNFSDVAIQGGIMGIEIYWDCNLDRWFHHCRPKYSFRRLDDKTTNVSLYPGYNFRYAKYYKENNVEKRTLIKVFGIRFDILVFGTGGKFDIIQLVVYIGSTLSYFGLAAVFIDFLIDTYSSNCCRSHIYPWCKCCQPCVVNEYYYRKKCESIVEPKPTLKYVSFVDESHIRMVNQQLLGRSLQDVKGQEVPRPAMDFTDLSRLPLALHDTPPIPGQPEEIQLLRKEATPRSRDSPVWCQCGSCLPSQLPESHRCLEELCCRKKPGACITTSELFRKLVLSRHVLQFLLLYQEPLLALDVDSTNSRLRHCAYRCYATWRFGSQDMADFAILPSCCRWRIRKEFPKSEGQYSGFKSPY
Method: Human P2X7R-expressing HEK293 cells were cultured in a humidified atmosphere of 5% CO2 at 37 °C in Dulbecco’s Modification of Eagle’s Medium (DMEM; Corning) supplemented with 10% (v/v) fetal bovine serum (Corning) and 1% (v/v) antibiotic–antimycotic (Gibco)[75]. To perform the assay, the DMEM was removed, and the HEK293 cells were washed with 3 mL of 1X DPBS (Dulbecco’s Phosphate-Buffered Saline; Corning). After the removal of DPBS solution, the cells were detached from the dish with 1 mL of trypsin/EDTA (Gibco), and the cells were collected by centrifugation. The cells (density of 2.25 × 10^7) were re-suspended in 4-(2-hydroxyethyl)-1-piperazineethanesulfonic acid (HEPES)-buffered salt solution consisting of 140 mM potassium chloride, 1 mM ethylene diamine tetraacetic acid (EDTA), 5 mM glucose, 20 mM HEPES, and 0.1 mM ethidium bromide (pH 7.4). The vehicles or appropriate range of concentrations of compounds (10 μL, pre-diluted in 10% (v/v) DMSO in DW from 10 mM stock) were added to each well of 96-well black plate (Corning), and 80 μL of the cell suspension was subsequently added to each well. BzATP (10 μL, pre-diluted in DW from 10 mM stock) was then added, and the final assay volume was maintained at 100 μL. After the incubation in 5% CO2 at 37 °C for 2 h, the ethidium dye uptake was detected by measuring the fluorescence (excitation wavelength of 530 nm and emission wavelength of 590 nm) of each well using a CHAMELEON™ Multi-Technology Plate Reader. The antagonistic activities of compounds are expressed as the percentages relative to the maximum accumulation of ethidium bromide observed in the control group with the stimulation of the hP2X7R by an agonist, BzATP. The IC50 values of compounds as antagonists were calculated using nonlinear regression analysis using OriginPro 9.1 software.

hP2X4R = tested on: T2, hP2X4R; assay: TEVC current traces with co-applied antagonist in Xenopus oocytes; assay type: cell-based, human; conditions: 300 µM ATP, 100 nM antagonist
T2 construct: expressed in transfected cells; host or cells: Xenopus laevis oocytes (cRNA, pNKS2 vector)

[1] = BzATP 6 μM, antagonist concentration 1 (unit not given)
[2] = BzATP 6 μM, antagonist concentration 10 (unit not given)
[3] = BzATP 6 μM, antagonist concentration 50 (unit not given)
[4] = BzATP 6 μM, antagonist concentration 100 (unit not given)
[5] = BzATP 6 μM, antagonist concentration 500 (unit not given)
[6] = BzATP 6 μM, antagonist concentration 1000 (unit not given)
[7] = BzATP 7 μM, antagonist concentration 0.1 (unit not given)
[8] = BzATP 7 μM, antagonist concentration 0.5 (unit not given)
[9] = BzATP 7 μM, antagonist concentration 1 (unit not given)
[10] = BzATP 7 μM, antagonist concentration 5 (unit not given)
[11] = BzATP 7 μM, antagonist concentration 10 (unit not given)
[12] = BzATP 7 μM, antagonist concentration 100 (unit not given)

- mean % of maximum accumulation (hP2X7R; [1]): 94.223%
- mean % of maximum accumulation (hP2X7R; [2]): 86.3844%
- mean % of maximum accumulation (hP2X7R; [3]): 53.8482%
- mean % of maximum accumulation (hP2X7R; [4]): 26.7232%
- mean % of maximum accumulation (hP2X7R; [5]): 9.424%
- mean % of maximum accumulation (hP2X7R; [6]): 9.144%
- IC50 (hP2X7R; hP2X7R, ethidium bromide accumulation, mean ± SD, triplicate): 47 ± 4 nM
- MAX100 (% of maximum accumulation, replicates 1-3) (hP2X7R; [1]): 87.3374 and 88.4652 and 106.867
- MAX100 (% of maximum accumulation, replicates 1-3) (hP2X7R; [2]): 79.5317 and 91.4204 and 88.2012
- MAX100 (% of maximum accumulation, replicates 1-3) (hP2X7R; [3]): 46.9211 and 58.6273 and 55.9961
- MAX100 (% of maximum accumulation, replicates 1-3) (hP2X7R; [4]): 22.0295 and 25.5481 and 32.5919
- MAX100 (% of maximum accumulation, replicates 1-3) (hP2X7R; [5]): 9.107 and 5.6244 and 13.5397
- MAX100 (% of maximum accumulation, replicates 1-3) (hP2X7R; [6]): 6.418 and 4.862 and 16.1509
Compound: O=C(NNc1ccccc1Cl)C12CC3CC(CC(C3)C1)C2 [UB-ALT-P30, reference compound]
- ΔΔGexp (hP2X7R): 0 kcal/mol

- mean % of maximum accumulation (hP2X7R; [7]): 86.0633%
- mean % of maximum accumulation (hP2X7R; [8]): 74.1428%
- mean % of maximum accumulation (hP2X7R; [9]): 59.2287%
- mean % of maximum accumulation (hP2X7R; [10]): 27.1109%
- mean % of maximum accumulation (hP2X7R; [11]): 10.5059%
- mean % of maximum accumulation (hP2X7R; [12]): 11.5505%
- MAX100 (% of maximum accumulation, replicates 1-3) (hP2X7R; [7]): 84.5638 and 89.1729 and 84.4531
- MAX100 (% of maximum accumulation, replicates 1-3) (hP2X7R; [8]): 75.8389 and 73.3083 and 73.2812
- MAX100 (% of maximum accumulation, replicates 1-3) (hP2X7R; [9]): 53.915 and 63.4586 and 60.3125
- MAX100 (% of maximum accumulation, replicates 1-3) (hP2X7R; [10]): 28.9336 and 34.5865 and 17.8125
- MAX100 (% of maximum accumulation, replicates 1-3) (hP2X7R; [11]): 10.962 and 9.774 and 10.7812
- MAX100 (% of maximum accumulation, replicates 1-3) (hP2X7R; [12]): 12.4534 and 11.7293 and 10.4688
Compound: CC12CC3CC1(C)C1(C)CC3(C(=O)NNc3ccccc3Cl)CC21C [UB-MBX-46]
- antagonism of the hP2X4R (hP2X4R): virtually no antagonism; also recorded: negligible
- ΔΔGexp (hP2X7R): -2.37 ± 0.32 kcal/mol
